This test has as its target Glutamate NMDA receptor; Grin1/Grin2c (Rattus norvegicus) (UniProt P35439+Q00961). Put plainly: Modulation of recombinant rat GluN1/GluN2C expressed in Xenopus laevis oocytes assessed as potentiation of glycine/glutamate-induced current by measuring receptor response at 100 uM by two-electrode voltage-clamp method relative to control. Type of test: cell-based. On the technique in general: In two-electrode clamp one electrode senses voltage and the other passes current.

On to `COC(=O)c1ccc(C2C(C(=O)c3ccncc3)=C(O)C(=O)N2CCc2c[nH]cn2)cc1` (configuration not stated), for which the Activity worked out at 84%.

For `COC(=O)c1ccc(C2C(C(=O)c3ccncc3)=C(O)C(=O)N2CCc2ccncc2)cc1` (configuration not stated), the Activity was 97%.

These data come from ChEMBL document CHEMBL3879913, “NMDA receptor modulators and uses related thereto” (2014).
